The values below come from US20200315998A1, “COMPOSITION FOR IMPROVING INTESTINAL BARRIER FUNCTION” (SUNTORY HOLDINGS LIMITED, priority 2017, published 2020).

This test has as its system Caco-2 cells. Kind of test: Evaluation of intestinal barrier function improvement: TEER reduction suppression in Caco-2 monolayer with inflammatory cytokines (TNFα, IL-1β, IFNγ). Type of test: cell-based, human. The note with it: for Relative value of TEER reduction suppression ratio: sample alone 1 μM; for Synergistic effect (relative value of actual measurement value / relative value of theoretical value): combined use of the phenolic compound with gallic acid, 1 μM each (Table 1); for Synergistic effect (M.V./T/V/) / TEER reduction suppression ratio (%) +gallic acid (actual measurement value) (M.V.) / Synergistic effect (M.V./T.V.): combined use of phenolic compound and gallic acid; for TEER reduction suppression ratio (%) +gallic acid (theoretical value) (T.V.): sum of ratios of phenolic compound alone and gallic acid alone; for TEER reduction suppression ratio: sample alone 100 μM, TNFα 40 ng/mL, IL-1β 20 ng/mL, IFNγ 10 ng/mL, 48 hours. An excerpt:
The intestinal barrier function improvement effect is indicated by, for example, increase in the electrical resistance value (transepithelial electric resistance: TEER) of the intestinal epithelial cells or suppression of the decrease in the TEER. A substance increasing the TEER or suppressing the decrease thereof has the action of normalizing or strengthening the tight junction in the intestinal epithelial cells. The intestinal barrier function improvement effect is also indicated by decrease in the amount of a substance permeating from the intestinal side of the intestinal epithelial cells to the inside of the body. The person skilled in the art can select a specific method of evaluating the intestinal barrier function improvement effect depending on the purpose. For exarple, as shown in Examples to be described later, a method for measuring TEER using an intestinal permeation model using human intestinal epithelial cells (Caco-2 cells) can be used. Specifically, inflammatory cytokine (TNFα, IL-1β, IFNγ and the like) is added into Caco-2 monolayer cultured cells to produce a state where the intestinal barrier function can be collapsed in human. If the addition of a test substance suppresses the decrease in the TEER as compared with the case where the substance is not added, the test substance can be evaluated to have the intestinal barrier function improvement effect.
Caco-2 cells were cultured for three weeks at 37° C. in Transwell (manufactured by Millicell Corporation) using DMEM (Dulbecco's modified Eagle's medium). A medium was removed from a plate of cultured Caco-2 cells, and the well was washed 3 times with serum-free DMEM. The well was filled with the medium. Then, the transepithelial electrical resistance (TEER) of Caco-2 monolayer cells was measured by Millicell-ERS (manufactured by Millipore Corporation). Cells (TEER≥1000 Ω·cm^2) determined that a sufficient tight junction was formed were selected, and used for the next screening. Then, to test solutions (media) on both apical and basolateral membrane sides, a sample, TNFα (40 ng/mL), IL-1β (20 ng/mL), and IFNγ (10 ng/mL) were added, followed by cultivating for 48 hours. The sample was dissolved in dimethyl sulfoxide (DMSO), and the solution was then added to the test solutions. In this case, a well to which inflammatory cytokine (TNFα, IL-1β, and IFNγ) and the sample were not added was provided as normal. A well to which inflammatory cytokine was added and the sample was not added was provided as control. After the cultivation, TEER was measured again, to evaluate whether the sample suppressed the reduction (decrease) of TEER due to the inflammatory cytokine.
The TEER reduction suppression ratio (%) due to the sample was determined according to the following formula from the TEER values of the well to which the sample was added, normal, and control.
(Calculating formula of TEER reduction suppression ratio) TEER reduction suppression ratio (%)=100×((TEER of well to which sample is added)−(TEER of control))/((TEER of normal)−(TEER of control))
In this evaluation system, as the TEER reduction suppression ratio (%) is higher, an intestinal barrier function improvement effect is higher.

[1] abbreviates: Evaluation 4, epigallocatechin (EGC) set to 1.0.
Where [2] appears, read: Evaluation 3, gallocatechin (GC) set to 1.0.

With `Oc1cc(O)c2c(c1)O[C@H](c1cc(O)c(O)c(O)c1)[C@H](O)C2` [Epigallocatechin (EGC), epigallocatechin], the “Synergistic effect (relative value of actual measurement value / relative value of theoretical value)” value came out at 1.5. Moreover, the “Relative value of TEER reduction suppression ratio” value under setting [1] was 1.0.
Consider `O=C(/C=C/c1ccc(O)cc1)c1c(O)cc(O)cc1O` [Naringenin chalcone, 4,2′,4′,6′-tetra-hydroxy chalcone], for which, under “each 10 μM”, the “Synergistic effect (M.V./T/V/)” value is 1.7 and the “TEER reduction suppression ratio (%) +gallic acid (actual measurement value) (M.V.)” value is listed as 51%.
Turning to stenophyllanin B, under “each 1 μM”, the “Synergistic effect (M.V./T.V.)” value turned out to be 1.3 and the “TEER reduction suppression ratio (%) +gallic acid (actual measurement value) (M.V.)” value was 82%. Also, under “1 μM each”, the “TEER reduction suppression ratio (%) +gallic acid (theoretical value) (T.V.)” value is 66%.
With `O=C(O[C@@H]1Cc2c(O)cc(O)cc2O[C@@H]1c1cc(O)c(O)c(O)c1)c1cc(O)c(O)c(O)c1` [Epigallocatechin gallate, epigallocatechin gallate], for the setting “each 10 μM”, the “Synergistic effect (M.V./T/V/)” value is listed as 1.5 and the “TEER reduction suppression ratio (%) +gallic acid (actual measurement value) (M.V.)” value is 114%. Moreover, the “TEER reduction suppression ratio (%) +gallic acid (theoretical value) (T.V.)” value (10 μM each) was found to be 76%.
With `O=c1c(O)c(-c2cc(O)c(O)c(O)c2)oc2cc(O)cc(O)c12` [Myricetin, myricetin], for the setting “each 10 μM”, the “Synergistic effect (M.V./T/V/)” value is recorded as 1.2 and the “TEER reduction suppression ratio (%) +gallic acid (actual measurement value) (M.V.)” value is 75%.
With `Oc1cc(O)c2c(c1)O[C@H](c1ccc(O)c(O)c1)[C@@H](O)[C@@H]2c1c(O)cc(O)c2c1O[C@H](c1ccc(O)c(O)c1)[C@@H](O)C2` [Procyanidin B3, procyanidin B3], under “each 10 μM”, the “Synergistic effect (M.V./T/V/)” value stood at 1.9 and the “TEER reduction suppression ratio (%) +gallic acid (actual measurement value) (M.V.)” value was 77%. For the same compound, the “TEER reduction suppression ratio (%) +gallic acid (theoretical value) (T.V.)” value (10 μM each) came out at 53%.
In the case of `O=c1c(O)c(-c2ccc(O)c(O)c2)oc2cc(O)cc(O)c12` [Quercetin, quercetin, reference compound], the “TEER reduction suppression ratio” value is reported as 75.0%. Also, where the note is “each 10 μM”, the “Synergistic effect (M.V./T/V/)” value was 1.7 and the “TEER reduction suppression ratio (%) +gallic acid (actual measurement value) (M.V.)” value is listed as 61%.
In the case of `Oc1cc(O)cc(/C=C/c2ccc(O)c(O)c2)c1` [Piceatannol, piceatannol], under “each 10 μM”, the “Synergistic effect (M.V./T/V/)” value is given as 1.1 and the “TEER reduction suppression ratio (%) +gallic acid (actual measurement value) (M.V.)” value was determined as 53%.
Taken in the same sequence, the figures for `C[C@@H]1O[C@@H](OC[C@H]2O[C@@H](Oc3c(-c4ccc(O)c(O)c4)oc4cc(O)cc(O)c4c3=O)[C@H](O)[C@@H](O)[C@@H]2O)[C@H](O)[C@H](O)[C@H]1O` [Rutin, rutin] were 2.9 and 45%.
In the same order, the values of `O=c1c(-c2ccc(O)cc2)coc2cc(O)cc(O)c12` [Genistein, genistein] are 1.6 and 58%.
For `O=C(O)c1cc(O)c(O)c(O)c1` [Gallic acid (GA), 3,4,5-trihydroxybenzoic acid], the “TEER reduction suppression ratio” value was determined as 86.5%. The “TEER reduction suppression ratio of gallic acid relative to quercetin at the same concentration” value (100 μM each, gallic acid vs quercetin) is reported as “about 1.15 times”. Moreover, the “Relative value of TEER reduction suppression ratio” value (Evaluation 1, catechin (CA) set to 1.0) is listed as 0.4. For the same compound, the “Relative value of TEER reduction suppression ratio” value (Evaluation 2, epicatechin (EC) set to 1.0) is 0.5. Also, the “Relative value of TEER reduction suppression ratio” value under setting [2] is listed as 0.3. Under setting [1], the “Relative value of TEER reduction suppression ratio” value stood at 0.2. Moreover, the “Suppression of the reduction of TEER due to inflammatory cytokine” value (gallic acid alone, 1 μM and 10 μM) is “suppressed the reduction of TEER”.
For `O=C(O[C@@H]1Cc2c(O)cc(O)cc2O[C@@H]1c1ccc(O)c(O)c1)c1cc(O)c(O)c(O)c1` [Epicatechin gallate, epicatechin gallate], under “each 10 μM”, the “Synergistic effect (M.V./T/V/)” value came to 2.3 and the “TEER reduction suppression ratio (%) +gallic acid (actual measurement value) (M.V.)” value turned out to be 110%.
Consider `Oc1cc(O)c2c(c1)O[C@H](c1cc(O)c(O)c(O)c1)[C@@H](O)C2` [Galloatechin (GC), gallocatechin], for which the “Synergistic effect (relative value of actual measurement value / relative value of theoretical value)” value is recorded as 2.5. Moreover, the “Relative value of TEER reduction suppression ratio” value under setting [2] was 1.0.
`O=c1cc(-c2ccc(O)c(O)c2)oc2cc(O)cc(O)c12` [Luteolin, luteolin]: where the note is “each 10 μM”, the “Synergistic effect (M.V./T/V/)” value is reported as 1.6 and the “TEER reduction suppression ratio (%) +gallic acid (actual measurement value) (M.V.)” value was 58%.
Take `OC[C@H]1O[C@@H](Oc2cc(O)cc(/C=C/c3ccc(O)cc3)c2)[C@H](O)[C@@H](O)[C@@H]1O` (relative stereo) [trans-Piceid, trans-piceid]: where the note is “each 10 μM”, the “Synergistic effect (M.V./T/V/)” value was 1.5 and the “TEER reduction suppression ratio (%) +gallic acid (actual measurement value) (M.V.)” value was 65%. The “TEER reduction suppression ratio (%) +gallic acid (theoretical value) (T.V.)” value (10 μM each) was 45%.
With `O=C(OC[C@H]1O[C@@H](O)[C@H](OC(=O)c2cc(O)c(O)c(O)c2)[C@@H](OC(=O)c2cc(O)c(O)c(O)c2)[C@@H]1OC(=O)c1cc(O)c(O)c(O)c1)c1cc(O)c(O)c(O)c1` [2,3,4,6-tetra-O-galloyl-β-D-glucose], where the note is “each 1 μM”, the “Synergistic effect (M.V./T.V.)” value is reported as 2.0 and the “TEER reduction suppression ratio (%) +gallic acid (actual measurement value) (M.V.)” value turned out to be 90%.
